Source: patent US10959995B2, “Methods of acute restoration of vascular compliance” (Alumend, LLC, priority 2013, dated 2021)
“Also recorded” adds a separate entry of the source. Blank lines part the entries; values can stand above or below the compound they belong to.

How the values were obtained:
[1] = test system: artery; assay: Arterial compression with other photoactivated material; conditions: FIG. 13
Procedure: Singlet oxygen generating species, such as Rose Bengal, riboflavin, and methylene blue were tested to determine if they would be effective at arterial compression.

[2] = Storage stability of naphthalimide dimer (solution and powder); type: physicochemical
Excerpt: A preparative HPLC approach was used to isolate and specifically purify the compound of formula (V) dimer from the compound of formula (V) naphthalimide product produced from the ethanol crystallization. The HPLC method used was based on the purity method outlined above; however, method modifications were made to replace acetonitrile with ethanol and TFA with acetic acid in the mobile phase. The preparative separation utilized a C18 column (X-bridge, 10 μm, 19×250 mm, Waters). The mobile phase consisted of mobile phase A, 0.1% acetic acid (aq), and mobile phase B, 9:1 ethanol:water (0.1% v/v acetic acid). The column was pre-equilibrated at a starting mobile phase of 95% A:5% B for 20 minutes, at the start of the gradient was a 2 minute hold followed by a linear gradient to 90% B at 40 minutes and a 10 minute hold. An injection volume of 8.5 mL (12 mg/mL purified compound of formula (V)) and flow rate of 8.5 mL/minute were used as well as a detector wavelength of 440 nm. The compound of formula (V) fractions were collected and analyzed using the analytical purity method presented above. Fractions meeting a minimum purity criterion were combined and the solvent driven off by rotovapping the solution to dryness. […] Finally the product was quantitatively transferred from the round bottom flask to a freeze drying flask by dissolving the product in a minimal amount of deionized water. […]

[3] = test system: hard and soft plaque from common and lower femoral artery; assay: Tissue immersion: plaque hardness by manual manipulation with forceps; design: species or system human; conditions: PBS pH 7.4
Excerpt: A sample of human tissue from the common and lower femoral artery was received. It was stored in saline and refrigerated until use. Based upon visual and tactile observations, the arteries were approximately 7-8 mm in diameter and contained evidence of both hard and soft plaque. The soft plaque has a yellow fatty appearance that is distinguishable from the vessel wall. The hard plaque presents itself as hard pieces of material that can be pulled (with a forceps) from the soft plaque. Sections of the artery suitable for catheter work were segregated and stored in phosphate buffered saline (PBS), pH=7.4. From the remaining arterial sections, pieces of tissue containing both hard and soft plaque were removed. These pieces were either placed in a solution of PBS (pH=7.4), or dimeric naphthalimide, such as a compound of formula (V) (which is in PBS, pH=7.4). Prior to immersion in either solution the relative hardness of the plaque was evaluated via manual manipulation with a forcep. After a 5 minute soak in solution (typical exposure time), no difference in the samples soaked in PBS was noticed (control). […] The samples were then left in their respective solutions for an additional 90 minutes.

[4] = test system: artery tissue; assay: Angioplasty with plaque-softening composition and photoactivation: fissure observation; design: species or system human
Procedure: The tissue was an artery approximately 7.4 mm in diameter. An Ultra-thin SDS 8 mm×30 mm catheter was used to dilate the artery to 7.55 mm (approximately a 2% overstretch). A fissure or a possible dissection running down the length of the tissue sample was observed.
A section (6.5 cm in length) of artery was exposed to the composition for 5 minutes. An 80 mm catheter was used to impart a 2% overstretch to the artery. The angioplasty was followed by photoactivation at 1800 mW for 60 seconds using the same 80 mm catheter with a 60 mm light fiber centered in the catheter.
A catheter with an 80 mm treatment zone balloon was used however the photoactivating light fiber was only 60 mm in length. During activation it was noted that the light fiber was shifted distally in the catheter. This meant that the distal end of the artery was receiving photoactivation, however, the proximal end received little or no light. A fissure down the length of the artery was again observed.

[5] = test system: hard (calcified) and soft plaque in diseased arteries; assay: Plaque penetration: diseased arteries soaked with plaque softening composition, light activated, visual and histological examination; design: species or system human
Procedure: Diseased arteries were obtained from limb amputations (leg) due to advanced Periperal Arterial Disease (PAD) from patients at Avera McKennan hospital. The received arteries were evaluated and chosen such that the diseased section was of reasonable size to accommodate the treatment catheter balloon length being used. The catheter balloon diameter used was also matched to the diameter of the artery and capable of achieving a 1:1.25 (ratio of artery diameter to balloon diameter) overstretch. The artery was laid in a petri dish and an angioplasty balloon was inserted and inflated for 60 seconds to impart the desired overstretch. While the angioplasty balloon was inflated a permanent marker was used to define the treatment zone (where the overstretch was imparted by the balloon) on the outer surface of the artery. The angioplasty balloon was deflated and removed. The inner lumen of the diseased artery was exposed to a plaque softening composition comprising a compound of formula (V) naphthalimide formulation (2 mg/mL in phosphate buffered saline, pH=7.4) for a period of 5 minutes. For the purpose of filling the artery, one end was clamped, the artery was held upright and a syringe was used to dispense the naphthalimide solution until the inner lumen was filled. The open end of the artery was then clamped and the soaking period of 5 minutes commenced. […] Arteries were cut open lengthwise and the treated section was evaluated by visual examination.
Prior to cutting the artery for visual examination samples from the treated and untreated sections were collected and preserved for histological examination. […] After this time, samples were stored in a −80° C. freezer until ready for further analysis. […] The crystalline nature of hard plaque is readily visible without staining. Under this magnification the crystalline structure of the calcific plaque was readily visible, as shown in FIG. 8 the dark area between the two lighter colored areas of the media. […]

[6] = 2 mg/mL in PBS pH 7.4, 5 minute soak, 447 nm light activation 60 seconds

Compound: O=C([O-])c1c(Cl)c(Cl)c(Cl)c(Cl)c1-c1c2cc(I)c(=O)c(I)c-2oc2c(I)c([O-])c(I)cc12.[Na+].[Na+] [Rose Bengal]
efficacy at arterial compression [1]: No efficacy

Compound: CN(C)c1ccc2nc3ccc(=[N+](C)C)cc-3sc2c1 [methylene blue]
efficacy at arterial compression [1]: No efficacy

degradation of dimer in powder form ([2]; periods exceeding one year of storage in a dessicator at room temperature): no evidence of degradation | stability of dimer solution ([2]; solution at pH 7.4, periods up to one year): excellent stability
Compound: NCCOCCOCCNc1ccc2c3c(cccc13)C(=O)N(CCOCCOCCN1C(=O)c3cccc4c(NCCOCCOCCN)ccc(c34)C1=O)C2=O [compound of formula (V)]
plaque hardness after soak ([3]; 5 minute soak in solution): slight softening | plaque hardness after soak ([3]; additional 90 minutes in solution): significantly softer and more pliable | repair of fissure ([4]; angioplasty then composition, distal region with adequate photoactivation): there appeared to be a seam indicating repair | fissure in opened artery ([4]; composition 5 minutes, then angioplasty 2% overstretch, photoactivation 1800 mW 60 seconds): no fissure observed | tacking of intimal flaps [5, 6]: definitive observation of tacking of intimal flaps | visual/tactile observation of plaque in treated region [5, 6]: apparent softened plaque; also recorded: looked and felt softer and creamier | calcium crystals in treated sections under microscope ([5]; treated vs untreated sections of artery): less evidence of calcium crystals

Compound: Cc1cc2nc3c(=O)[nH]c(=O)nc-3n(C[C@H](O)[C@H](O)[C@H](O)CO)c2cc1C [riboflavin]
efficacy at arterial compression [1]: No efficacy
